Experiments:
Conditions in all cases: Compound concentration 1000.0 nM
[1] = target: T1, NUAK family SNF1-like kinase 1 (Homo sapiens) (UniProt O60285)
T1 sequence (whole entry): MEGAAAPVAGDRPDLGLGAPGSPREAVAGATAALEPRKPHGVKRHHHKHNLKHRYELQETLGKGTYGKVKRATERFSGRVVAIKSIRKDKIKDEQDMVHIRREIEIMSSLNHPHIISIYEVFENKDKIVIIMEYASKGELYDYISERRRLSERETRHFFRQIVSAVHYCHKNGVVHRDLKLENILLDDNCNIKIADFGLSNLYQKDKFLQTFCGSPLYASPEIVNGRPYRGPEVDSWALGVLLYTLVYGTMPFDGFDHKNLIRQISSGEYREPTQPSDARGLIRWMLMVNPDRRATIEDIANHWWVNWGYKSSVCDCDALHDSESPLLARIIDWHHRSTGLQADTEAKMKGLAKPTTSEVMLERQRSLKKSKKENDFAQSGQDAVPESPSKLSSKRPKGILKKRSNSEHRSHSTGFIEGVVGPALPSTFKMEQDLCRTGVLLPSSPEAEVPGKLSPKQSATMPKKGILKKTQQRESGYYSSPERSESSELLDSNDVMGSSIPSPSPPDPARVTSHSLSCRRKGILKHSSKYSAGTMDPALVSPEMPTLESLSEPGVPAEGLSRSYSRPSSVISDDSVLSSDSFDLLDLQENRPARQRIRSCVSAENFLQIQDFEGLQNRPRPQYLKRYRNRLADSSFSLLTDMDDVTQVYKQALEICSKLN

[2] = target: Casein kinase II subunit alpha' (Homo sapiens) (UniProt P19784)
Sequence of Casein kinase II subunit alpha' (Homo sapiens) (P19784 whole entry, looked up): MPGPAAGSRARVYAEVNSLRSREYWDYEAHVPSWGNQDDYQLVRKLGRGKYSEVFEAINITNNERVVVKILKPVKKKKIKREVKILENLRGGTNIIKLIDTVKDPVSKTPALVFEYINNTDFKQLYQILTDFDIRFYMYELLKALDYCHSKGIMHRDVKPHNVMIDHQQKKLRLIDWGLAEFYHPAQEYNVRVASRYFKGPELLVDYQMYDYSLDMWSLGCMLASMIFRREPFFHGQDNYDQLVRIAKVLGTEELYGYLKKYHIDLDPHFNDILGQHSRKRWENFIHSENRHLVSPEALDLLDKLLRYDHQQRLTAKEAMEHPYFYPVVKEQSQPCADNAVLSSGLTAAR

[3] = target: Dual specificity tyrosine-phosphorylation-regulated kinase 1B (Homo sapiens) (UniProt Q9Y463)
Sequence of Dual specificity tyrosine-phosphorylation-regulated kinase 1B (Homo sapiens) (Q9Y463 whole entry, looked up): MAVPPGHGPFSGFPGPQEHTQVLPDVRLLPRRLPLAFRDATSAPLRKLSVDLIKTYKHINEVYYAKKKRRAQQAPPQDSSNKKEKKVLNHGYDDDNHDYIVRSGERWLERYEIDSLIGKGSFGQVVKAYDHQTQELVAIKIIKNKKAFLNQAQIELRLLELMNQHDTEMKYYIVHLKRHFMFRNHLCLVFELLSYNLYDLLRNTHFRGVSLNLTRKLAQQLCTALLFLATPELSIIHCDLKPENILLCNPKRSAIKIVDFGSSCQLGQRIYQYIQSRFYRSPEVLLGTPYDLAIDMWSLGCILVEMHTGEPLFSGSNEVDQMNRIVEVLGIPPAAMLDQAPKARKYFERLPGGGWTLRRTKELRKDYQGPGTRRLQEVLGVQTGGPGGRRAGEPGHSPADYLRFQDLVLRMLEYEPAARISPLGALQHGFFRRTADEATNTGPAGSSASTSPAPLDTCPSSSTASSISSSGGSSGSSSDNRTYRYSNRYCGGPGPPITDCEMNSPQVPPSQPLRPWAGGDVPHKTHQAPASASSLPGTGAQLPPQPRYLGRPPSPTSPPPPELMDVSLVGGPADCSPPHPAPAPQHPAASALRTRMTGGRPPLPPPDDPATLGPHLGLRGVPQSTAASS

[4] = test system: Epidermal growth factor receptor (Homo sapiens), P00533 [UNDEFINED MUTATION]
[5] = target: T2, Serine/threonine-protein kinase MAK (Homo sapiens) (UniProt P20794)
T2 sequence (whole entry): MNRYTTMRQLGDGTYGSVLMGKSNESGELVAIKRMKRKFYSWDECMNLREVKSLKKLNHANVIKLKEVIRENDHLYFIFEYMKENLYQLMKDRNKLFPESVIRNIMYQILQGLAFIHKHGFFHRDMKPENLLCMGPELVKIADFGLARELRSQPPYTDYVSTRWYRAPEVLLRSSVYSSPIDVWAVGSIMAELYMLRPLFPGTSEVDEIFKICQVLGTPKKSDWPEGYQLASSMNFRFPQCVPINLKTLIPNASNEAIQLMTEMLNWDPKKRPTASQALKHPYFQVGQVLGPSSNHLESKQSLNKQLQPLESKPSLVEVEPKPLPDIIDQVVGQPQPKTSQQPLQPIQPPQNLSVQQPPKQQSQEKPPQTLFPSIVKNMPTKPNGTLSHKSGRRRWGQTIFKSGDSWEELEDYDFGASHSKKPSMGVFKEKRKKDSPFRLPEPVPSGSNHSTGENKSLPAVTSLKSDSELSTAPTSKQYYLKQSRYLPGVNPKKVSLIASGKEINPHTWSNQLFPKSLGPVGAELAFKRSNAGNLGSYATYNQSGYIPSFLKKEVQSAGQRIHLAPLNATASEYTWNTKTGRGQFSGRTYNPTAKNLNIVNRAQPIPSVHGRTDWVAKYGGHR

[6] = target: Serine/threonine-protein kinase MRCK alpha (Homo sapiens) (UniProt Q5VT25)
Sequence of Serine/threonine-protein kinase MRCK alpha (Homo sapiens) (Q5VT25 whole entry, canonical isoform): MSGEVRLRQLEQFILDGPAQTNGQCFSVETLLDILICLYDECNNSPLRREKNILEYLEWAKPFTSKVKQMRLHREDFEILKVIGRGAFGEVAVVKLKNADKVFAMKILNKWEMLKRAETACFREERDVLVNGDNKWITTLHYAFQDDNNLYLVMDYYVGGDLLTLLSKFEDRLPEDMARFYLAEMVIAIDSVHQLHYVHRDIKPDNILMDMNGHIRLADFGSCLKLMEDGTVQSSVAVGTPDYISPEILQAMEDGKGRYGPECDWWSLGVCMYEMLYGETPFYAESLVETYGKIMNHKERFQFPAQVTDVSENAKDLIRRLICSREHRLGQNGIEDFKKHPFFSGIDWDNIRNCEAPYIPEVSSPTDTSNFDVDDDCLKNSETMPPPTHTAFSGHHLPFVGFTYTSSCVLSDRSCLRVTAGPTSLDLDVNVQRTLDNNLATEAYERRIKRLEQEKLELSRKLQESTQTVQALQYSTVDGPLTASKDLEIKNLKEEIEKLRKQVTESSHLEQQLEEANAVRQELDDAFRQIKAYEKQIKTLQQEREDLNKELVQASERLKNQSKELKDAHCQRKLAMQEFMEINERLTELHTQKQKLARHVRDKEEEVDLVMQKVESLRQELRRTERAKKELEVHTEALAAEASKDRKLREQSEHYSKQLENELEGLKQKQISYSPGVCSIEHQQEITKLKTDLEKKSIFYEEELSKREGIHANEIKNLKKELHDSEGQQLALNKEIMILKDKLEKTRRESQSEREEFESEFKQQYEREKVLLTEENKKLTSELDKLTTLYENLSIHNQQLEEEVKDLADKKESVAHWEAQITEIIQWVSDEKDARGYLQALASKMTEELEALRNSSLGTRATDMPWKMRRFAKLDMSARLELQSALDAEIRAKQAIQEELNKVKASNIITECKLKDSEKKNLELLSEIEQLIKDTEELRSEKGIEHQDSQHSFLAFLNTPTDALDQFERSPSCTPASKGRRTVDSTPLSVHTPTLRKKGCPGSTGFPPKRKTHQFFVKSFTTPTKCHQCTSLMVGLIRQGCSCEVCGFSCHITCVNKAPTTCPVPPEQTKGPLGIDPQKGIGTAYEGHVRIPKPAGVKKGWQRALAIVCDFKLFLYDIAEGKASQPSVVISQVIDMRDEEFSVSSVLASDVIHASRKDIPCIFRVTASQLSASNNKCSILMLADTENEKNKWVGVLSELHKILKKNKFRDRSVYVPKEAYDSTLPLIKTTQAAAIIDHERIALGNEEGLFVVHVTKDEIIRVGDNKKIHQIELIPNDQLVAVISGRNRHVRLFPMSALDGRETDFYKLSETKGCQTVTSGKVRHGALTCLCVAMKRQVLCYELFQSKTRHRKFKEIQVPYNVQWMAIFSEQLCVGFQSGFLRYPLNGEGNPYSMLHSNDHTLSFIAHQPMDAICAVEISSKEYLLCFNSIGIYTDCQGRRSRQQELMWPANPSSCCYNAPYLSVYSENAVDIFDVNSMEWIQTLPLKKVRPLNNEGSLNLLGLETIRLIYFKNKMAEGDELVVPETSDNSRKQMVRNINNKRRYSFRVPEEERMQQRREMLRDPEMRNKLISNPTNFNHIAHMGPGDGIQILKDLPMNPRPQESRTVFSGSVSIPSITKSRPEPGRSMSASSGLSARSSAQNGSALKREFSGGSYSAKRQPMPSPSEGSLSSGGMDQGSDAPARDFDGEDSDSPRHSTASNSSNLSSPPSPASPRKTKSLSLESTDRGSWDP

[7] = test system: Phosphatidylinositol 4,5-bisphosphate 3-kinase catalytic subunit alpha isoform (Homo sapiens), P42336 [M1043I]
Sequence of Phosphatidylinositol 4,5-bisphosphate 3-kinase catalytic subunit alpha isoform (Homo sapiens), P42336 [M1043I] (P42336 whole entry M1043I, canonical isoform): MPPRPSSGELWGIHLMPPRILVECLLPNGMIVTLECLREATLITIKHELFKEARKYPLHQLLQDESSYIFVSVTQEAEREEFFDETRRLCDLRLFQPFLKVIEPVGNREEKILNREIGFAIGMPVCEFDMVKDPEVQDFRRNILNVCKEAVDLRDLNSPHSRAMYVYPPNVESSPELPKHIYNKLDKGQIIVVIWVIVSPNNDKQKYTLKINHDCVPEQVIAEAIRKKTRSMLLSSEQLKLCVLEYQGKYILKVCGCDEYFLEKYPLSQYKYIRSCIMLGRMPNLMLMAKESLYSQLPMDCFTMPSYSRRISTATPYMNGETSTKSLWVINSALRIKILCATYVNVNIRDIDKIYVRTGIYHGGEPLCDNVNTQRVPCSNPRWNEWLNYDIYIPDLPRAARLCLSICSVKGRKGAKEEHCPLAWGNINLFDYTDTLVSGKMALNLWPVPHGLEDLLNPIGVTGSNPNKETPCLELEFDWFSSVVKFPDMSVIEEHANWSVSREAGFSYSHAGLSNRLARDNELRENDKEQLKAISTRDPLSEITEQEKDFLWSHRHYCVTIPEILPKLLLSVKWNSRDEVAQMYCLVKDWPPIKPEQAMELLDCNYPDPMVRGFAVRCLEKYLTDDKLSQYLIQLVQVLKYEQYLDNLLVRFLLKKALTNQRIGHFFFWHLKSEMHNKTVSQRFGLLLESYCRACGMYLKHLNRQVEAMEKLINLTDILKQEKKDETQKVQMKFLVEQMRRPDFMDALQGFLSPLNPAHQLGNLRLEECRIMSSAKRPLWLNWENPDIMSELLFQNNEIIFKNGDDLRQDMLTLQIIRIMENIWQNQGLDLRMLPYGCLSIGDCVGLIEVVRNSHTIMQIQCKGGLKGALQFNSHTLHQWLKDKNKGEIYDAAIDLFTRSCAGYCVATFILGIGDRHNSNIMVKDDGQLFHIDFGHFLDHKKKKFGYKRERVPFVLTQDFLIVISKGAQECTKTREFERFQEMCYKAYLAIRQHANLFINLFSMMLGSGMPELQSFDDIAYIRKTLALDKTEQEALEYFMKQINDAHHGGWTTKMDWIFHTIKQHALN

[8] = target: T3, cGMP-dependent protein kinase 2 (Homo sapiens) (UniProt Q13237)
T3 sequence (whole entry): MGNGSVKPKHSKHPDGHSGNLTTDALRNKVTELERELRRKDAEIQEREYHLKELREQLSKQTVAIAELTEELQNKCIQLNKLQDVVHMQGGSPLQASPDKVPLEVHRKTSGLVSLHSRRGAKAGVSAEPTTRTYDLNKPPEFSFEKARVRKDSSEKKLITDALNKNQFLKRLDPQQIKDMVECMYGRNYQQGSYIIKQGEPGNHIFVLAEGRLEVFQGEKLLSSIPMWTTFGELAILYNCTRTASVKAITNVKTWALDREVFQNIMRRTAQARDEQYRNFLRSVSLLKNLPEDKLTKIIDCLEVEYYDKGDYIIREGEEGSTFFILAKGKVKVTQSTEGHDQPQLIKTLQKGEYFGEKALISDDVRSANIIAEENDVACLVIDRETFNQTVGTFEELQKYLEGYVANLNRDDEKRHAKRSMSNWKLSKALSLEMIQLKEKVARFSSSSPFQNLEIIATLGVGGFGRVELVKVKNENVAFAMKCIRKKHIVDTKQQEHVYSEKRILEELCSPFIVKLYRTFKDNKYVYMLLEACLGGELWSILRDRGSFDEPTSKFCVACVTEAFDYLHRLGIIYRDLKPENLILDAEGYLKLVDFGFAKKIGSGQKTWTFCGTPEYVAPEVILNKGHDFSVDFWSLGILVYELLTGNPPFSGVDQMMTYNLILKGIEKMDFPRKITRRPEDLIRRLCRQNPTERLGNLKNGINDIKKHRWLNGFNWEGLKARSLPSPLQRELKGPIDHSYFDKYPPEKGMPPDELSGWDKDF

[9] = test system: Proto-oncogene tyrosine-protein kinase receptor Ret (Homo sapiens), P07949 [M918T]
Sequence of Proto-oncogene tyrosine-protein kinase receptor Ret (Homo sapiens), P07949 [M918T] (P07949 whole entry M918T): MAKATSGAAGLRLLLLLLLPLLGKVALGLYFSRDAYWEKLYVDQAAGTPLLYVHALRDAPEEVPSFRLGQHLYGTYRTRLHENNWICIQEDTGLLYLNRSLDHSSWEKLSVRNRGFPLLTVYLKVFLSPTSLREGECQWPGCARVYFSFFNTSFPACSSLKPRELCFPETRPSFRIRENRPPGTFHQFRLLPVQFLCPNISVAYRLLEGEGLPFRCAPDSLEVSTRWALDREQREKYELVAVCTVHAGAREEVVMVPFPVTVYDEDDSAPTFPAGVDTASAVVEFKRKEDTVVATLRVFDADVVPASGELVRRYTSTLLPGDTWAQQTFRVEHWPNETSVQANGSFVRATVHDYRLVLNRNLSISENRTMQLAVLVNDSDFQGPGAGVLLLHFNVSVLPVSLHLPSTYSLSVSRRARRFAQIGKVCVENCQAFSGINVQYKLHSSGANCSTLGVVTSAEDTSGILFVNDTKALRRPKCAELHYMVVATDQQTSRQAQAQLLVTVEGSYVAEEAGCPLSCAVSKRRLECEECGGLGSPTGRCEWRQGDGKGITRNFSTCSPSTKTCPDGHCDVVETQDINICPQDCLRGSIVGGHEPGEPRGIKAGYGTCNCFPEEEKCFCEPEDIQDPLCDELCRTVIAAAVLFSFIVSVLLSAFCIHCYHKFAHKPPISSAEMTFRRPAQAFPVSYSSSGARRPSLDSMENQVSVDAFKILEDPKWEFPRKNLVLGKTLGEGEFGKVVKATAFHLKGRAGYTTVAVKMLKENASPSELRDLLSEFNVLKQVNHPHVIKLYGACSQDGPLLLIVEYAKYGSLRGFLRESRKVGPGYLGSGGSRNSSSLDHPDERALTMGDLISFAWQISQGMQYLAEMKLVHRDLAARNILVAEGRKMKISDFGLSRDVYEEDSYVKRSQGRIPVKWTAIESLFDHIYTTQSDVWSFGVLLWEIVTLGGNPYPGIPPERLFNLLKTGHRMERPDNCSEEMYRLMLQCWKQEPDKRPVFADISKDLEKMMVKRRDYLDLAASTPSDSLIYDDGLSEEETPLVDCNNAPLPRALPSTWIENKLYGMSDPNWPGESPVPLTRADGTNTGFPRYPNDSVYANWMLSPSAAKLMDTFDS

Measured: residual activity

Cc1nc(C2CCN(C(=O)c3ccc(OC(F)(F)F)cc3N)CC2)c2ncc(N3CCN(C)CC3)cc2n1 [BAY-693]
inactive: [1] 95% | [2] 85% | [3] 61% | [4] 70% | [5] 99% | [6] 99% | [7] 96% | [8] 74% | [9] 86%

CN1CCN(c2cnc3c(C4CCN(C(=O)c5ccc(OC(F)(F)F)cc5N)CC4)ncnc3c2)CC1 [BAY-885]
inactive: [1] 100% | [2] 93% | [3] 54% | [4] 83% | [5] 100% | [6] 100% | [7] 100% | [8] 77% | [9] 100%
